Test results published in patent US20220241223A1, “USE OF DISULFIRAM OR ITS DERIVATIVES FOR THE TREATMENT OF MITOCHONDRIAL DISEASES OR DYSFUNCTION” (Universite D'angers, priority 2019, published 2022).

Experiments:
[1] = system: JCP239 NARP (T8993G) cybrid cell line; test: NARP cybrid growth in glucose-deprived medium; assay type: cell-based, human; settings: FIG. 3, low concentrations (from 1 nM), 5 days
Method: FIG. 3: Effect of DSF on NARP cybrid cell lines (JCP239 NARP (T8993G)) grown in glucose deprived medium. DHLA (dihydrolipoic acid) was used as a positive control, as in previous studies (Couplan E et al. & Aiyar R S et al.). Various concentrations of DSF were tested as indicated. After 5 days of treatment by DSF, or DMSO (negative control), or DHLA (positive control), followed by a trypsin treatment, the number of living cells was determined using a Scepter Counter (Millipore). All cell counts were expressed relative to DMSO values set at 100%. This experiment has been repeated two times in triplicates and error bars represent the standard deviation. For each condition, the mean values of the resulting six points is indicated and compared to the negative control (DMSO-treated cells) using the Student's t-test (*P=0.0153; **P=0.0025; ***P<0.0001). […]

control cybrids (JCP213) = test: Control cybrid growth in glucose-deprived medium; assay type: cell-based, human; settings: same range of concentration
Method: The cybrid cell lines JCP213 (WT control) and JCP239 (NARP T8993G, Manfredi G et al.) were grown in high glucose (4.5 g/L final concentration) DMEM (supplemented with fetal bovine serum—FBS—at 5% final concentration, sodium pyruvate at 1 mM final concentration, L-glutamine at 4 mM final concentration and uridine at 200 μM final concentration) and then shifted in the same DMEM-based medium except that it is deprived of glucose to encourage the cells to rely on OXPHOS (OXidative PHOSphorylation) rather than glycolysis, supplemented with: • various concentrations of DSF; or • as control, with equivalent quantity of DMSO (compound vehicle, negative control); or • with 150 μM dihydrolipoic acid (DHLA, positive control, as in previous studies (Couplan E et al. & Aiyar R S et al.). All the cells were grown at 37° C. in presence of 5% CO2.

## CCN(CC)C(=S)SSC(=S)N(CC)CC [DSF, 1-(diethylthiocarbamoyldisulfanyl)-N,N-diethyl-methanethioamide]
[1]
  effect on growth of NARP cybrids: significant positive effect
Control cybrids (JCP213)
  effect on growth of control cybrids: no effect
